Tests used:
[1] = system: IL-23R; assay: IL-23R expression in naïve human CD4+ T cells, flow cytometry; format: cell-based; settings: 10 μM PGE2, 10 μM butaprost, 35 μM misoprostol, 10 μM sulprostone; restimulated 48 hours; FIGS. 4A, 4B
Description: FIGS. 4A and 4B present results obtained in experiments in which naïve human CD4^+ T cells are activated with T cell activation beads and cultured in the presence or absence of PGE2 or specific EP receptors agonists.
(§1) Methods used in this example are generally as described at Wilson et al. (2007) Nature Immunology 8:950. More specifically, cell culture is performed as follows. Naïve CD4^+ CD45RO^− T cells are isolated and cultured as described previously (Wilson et al. (2007), supra). Memory CD4^+ CD45RA^− T cells are isolated using the memory T cell isolation kit, human (Miltenyi, Auburn, Calif.), according to the manufacturer's instructions. Where indicated, 50 ng/ml hIL-23, 50 ng/ml hIL-1β (R&D Systems, Minneapolis, Minn.), 10 μM PGE2 (Sigma, St. Louis, Mo.), 10 μM butaprost (EP2 selective agonist), 35 μM misoprostol (EP4, EP3>EP1>EP2 agonist), and/or 10 μM sulprostone (EP1, EP3 agonist, Cayman Chemical, Ann Arbor, Mich.) are added.
For analysis of cell surface proteins, cells are stained with anti-CD4, anti-CD3, anti-CD45RA, anti-CCR6 (BD Biosciences), and/or anti-IL-23R (R&D Systems) antibodies. Data are acquired on a LSR II cytometer and analyzed with FlowJo software (Tree Star, Ashland, Oreg.).
Further experiments are performed to determine the effect of PGE2, or agonists thereof, on the expression of IL-23R in naïve human CD4^+ T cells in culture. […]

[2] = system: IL-1R1; assay: IL-1R1 gene expression in response to PGE2; format: cell-based, human; settings: data not shown
Description: (§2) Real-time quantitative PCR is performed as described previously (Wilson et al. (2007), supra).
Further experiments are performed to determine the effect of PGE2, or agonists thereof, on the expression of IL-23R in naïve human CD4^+ T cells in culture. […] In addition, IL-1R1 gene expression is increased in response to PGE2 (data not shown).

[3] = system: naïve human CD4+ T cells; assay: Cytokine expression by naïve human CD4+ T cells cultured with IL-1β and IL-23, with or without PGE2 or EP receptor agonists; format: cell-based; settings: together with IL-1β and IL-23
Description: FIGS. 5A, 5B and 5C present results obtained in naïve human CD4^+ T cells activated with T cell activation beads and cultured in the presence or absence of IL-23 and IL-1β, with or without PGE2 or the EP receptors agonists butaprost, misoprostol, and sulprostone. Data in FIGS. 5A-5C reflect IL-17A, IFN-γ and IL-10 production in cell-free supernatants of T cells restimulated for 48 hours, respectively. Results in each figure are representative of two independent experiments.
as §1
ELISA and electrochemiluminescence assays are performed as described previously (Wilson et al. (2007), supra). IL-10 ELISA is performed using a kit from R&D Systems. […]

[4] = system: CCR6; assay: CCR6 expression in naïve human CD4+ T cells, flow cytometry; format: cell-based; settings: PGE2 added to IL-1β and IL-23; FIG. 6A
Description: FIGS. 6A, 6B and 6C present results obtained with naïve human CD4^+ T cells cultured as described with reference to FIGS. 5A-5C. […] Results represent mean±s.e.m. of nine independent experiments. For data presented in FIGS. 6B and 6C, naïve T cells are cultured in the presence of IL-1β, IL-23, and PGE2. After reactivation, CD4^+ CCR6^+ and CD4^+CCR6^− T cells are sorted and cultured for seven days in the presence of IL-2. […] Results in each of FIGS. 6B and 6C reflect the results of four independent experiments.
Methods used in this example are generally as described at Wilson et al. (2007) Nature Immunology 8:950. More specifically, cell culture is performed as follows. Naïve CD4^+ CD45RO^− T cells are isolated and cultured as described previously (Wilson et al. (2007), supra). Memory CD4^+ CD45RA^− T cells are isolated using the memory T cell isolation kit, human (Miltenyi, Auburn, Calif.), according to the manufacturer's instructions. […]
For analysis of cell surface proteins, cells are stained with anti-CD4, anti-CD3, anti-CD45RA, anti-CCR6 (BD Biosciences), and/or anti-IL-23R (R&D Systems) antibodies. Data are acquired on a LSR II cytometer and analyzed with FlowJo software (Tree Star, Ashland, Oreg.). […]

[5] = system: human memory CD4+ T cells; assay: Cytokine production and gene expression in activated human memory CD4+ T cells; format: cell-based
Description: FIGS. 7A and 7B present results obtained with human memory CD4^+ T cells activated and cultured for three days in the presence of IL-23, IL-1β, and/or PGE2. […] Results from nine independent donors are shown. […] Results from four different donors are shown. Horizontal lines represent medians.
as §1
ELISA and electrochemiluminescence assays are performed as described previously (Wilson et al. (2007), supra). IL-10 ELISA is performed using a kit from R&D Systems.
as §2
Intervention with therapeutic agents, such as antagonists of the inflammatory cytokines and non-cytokine immunomodulators, might therefore be expected to be beneficial when administered both systemically and also when administered locally at (or near) the site of inflammation.

[6] = system: CD161+ Thmem cells; assay: IL-17 production by lamina propria CD161+ Thmem cells cultured with IL-23; format: cell-based, human; settings: CD161+ Thmem cells cultured in the presence of IL-23
Description: (§3) Colon and peripheral blood (PB) samples are obtained from Crohn's Disease patients. Lamina propria mononuclear cells (LPMC) are prepared from colon samples by dissociation of the epithelial layer of the mucosa, collagenase digestion of the lamina propria, and density gradient centrifugation. Peripheral blood mononuclear cells (PBMC) are isolated from PB by density gradient centrifugation and lysis of red blood cells.
Colon samples from CD patients contain approximately 20-fold more CD161^+ CD4^+ memory T cells, as determined by flow cytometry, than colon samples from normal subjects. FACS® flow cytometry purified lamina propria CD161^+ Thmem cells are found to produce 4 to 6-fold more IL-17 than CD161^− Thmem cells (as measured by ELISA) in both CD and normal samples.

[7] = system: PBMC CD161+ Thmem cells; assay: IL-17 production by PBMC CD161+ Thmem cells from CD patients cultured with IL-23; format: cell-based, human
Description: as §3
This Th17 phenotype is increased in Crohn's disease patients.

[8] = memory T cells cultured three days, FIG. 7A

Molecule | percentage of IL-23R expressing CD4+ T cells [1] | IL-1R1 gene expression [2] | IL-10 expression ([3]; FIG. 5C) | percentage of naïve human CD4+ T cells expressing CCR6 [4] | IFN-γ levels [5, 8] | IL-10 levels [5, 8] | IL-17A levels [5, 8] | ROR-γt expression ([5]; real-time RT-PCR, FIG. 7B) | IL-17 expression ([3]; FIG. 5A) | enhancement of IL-17 production [6] | IL-17 production [7]
CCCCC[C@H](O)/C=C/[C@H]1[C@H](O)CC(=O)[C@@H]1C/C=C\CCCC(=O)O [PGE2, prostaglandin E2] | more than doubles | increased | Downregulation | increase in the percentage | does not promote increased levels | does not promote increased levels | promotes increased levels | promotes increased levels of the IL-17A and expression of ROR-γt | – | – | –
CCCC1([C@H](O)C/C=C/[C@H]2[C@H](O)CC(=O)[C@@H]2CCCCCCC(=O)OC)CCC1 [butaprost] | more than doubles | – | – | – | – | – | – | – | somewhat greater increase in IL-17 expression than misoprostol | – | –
IL-23: protein consisting of two polypeptide subunits, p19 and p40 (protein, UniProt Q9NPF7 20-189; P29460 23-328, looked up) Interleukin-23 subunit alpha: RAVPGGSSPAWTQCQQLSQKLCTLAWSAHPLVGHMDLREEGDEETTNDVPHIQCGDGCDPQGLRDNSQFCLQRIHQGLIFYEKLLGSDIFTGEPSLLPDSPVGQLHASLLGLSQLLQPEGHHWETQQIPSLSPSQPWQRLLLRFKILRSLQAFVAVAARVFAHGAATLSP Interleukin-12 subunit beta: IWELKKDVYVVELDWYPDAPGEMVVLTCDTPEEDGITWTLDQSSEVLGSGKTLTIQVKEFGDAGQYTCHKGGEVLSHSLLLLHKKEDGIWSTDILKDQKEPKNKTFLRCEAKNYSGRFTCWWLTTISTDLTFSVKSSRGSSDPQGVTCGAATLSAERVRGDNKEYEYSVECQEDSACPAAEESLPIEVMVDAVHKLKYENYTSSFFIRDIIKPDPPKNLQLKPLKNSRQVEVSWEYPDTWSTPHSYFSLTFCVQVQGKSKREKKDRVFTDKTSATVICRKNASISVRAQDRYYSSSWSEWASVPCS | – | – | – | – | – | – | – | – | – | approximately 3 fold | increased IL-17 production
